Source: patent publication US9505769B2 (ASCENEURON SA, priority 2013, dated 2016)
Counter-ions that a name gives are not always drawn.

These compounds were tested against T1, human muscarinic acetylcholine M1 receptor (Homo sapiens, UniProt P11229) (assay: M1 PAM Assay (IP-One HTRF, IP1 accumulation in M1-CHO cells)). Settings: not given.
T1 construct: expressed in transfected cells; host or cells: CHO-K1
T1 sequence (P11229 1-460): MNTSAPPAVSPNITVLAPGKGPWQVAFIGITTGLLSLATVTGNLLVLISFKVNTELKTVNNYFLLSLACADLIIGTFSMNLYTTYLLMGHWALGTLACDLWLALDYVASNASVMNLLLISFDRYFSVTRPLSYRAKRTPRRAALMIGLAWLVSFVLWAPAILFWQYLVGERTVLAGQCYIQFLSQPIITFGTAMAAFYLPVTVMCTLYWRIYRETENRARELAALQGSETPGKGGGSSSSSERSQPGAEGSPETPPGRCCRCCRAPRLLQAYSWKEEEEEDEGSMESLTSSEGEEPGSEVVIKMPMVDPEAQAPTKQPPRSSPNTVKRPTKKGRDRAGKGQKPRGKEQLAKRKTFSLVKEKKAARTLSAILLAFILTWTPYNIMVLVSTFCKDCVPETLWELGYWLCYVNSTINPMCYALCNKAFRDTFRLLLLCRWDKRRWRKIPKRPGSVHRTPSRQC
Type: cell-based
Description: Then diluted compounds (0.6% DMSO final concentration) are added together with EC20 of acetylcholine and incubated with the cells for 30 min at 37° C., 5% CO2.
CHO-K1 cells stably transfected with human muscarinic acetylcholine M1 receptor are cultured in Ham's F12 medium containing 10% heat inactivated fetal calf serum, 2 mM L-glutamine and Penicillin-Streptomycin grown in a humidified atmosphere at 5% CO2/95% air at 37° C.

Structure (SMILES) | EC50 [nM]
Cc1nc2c3c(nn2c(C)c1Cl)CN(C(=O)c1ccc(F)cc1O[C@H]1C[C@H]2CCC[C@@H](C1)N2C)C3 [Example 58, (3-chloro-2,4-dimethyl-7H-pyrrolo[3′,4′:3,4]pyrazolo[1,5-a]pyrimidin-8(9H)-yl)(4-fluoro-2-{[(3-endo)-9-methyl-9-azabicyclo[3.2.1]nonan-3-yl]oxy}phenyl)methanone] | 200 to 1000
Cc1nc2c3c(nn2c(C)c1Cl)CN(C(=O)c1ccc(F)cc1OC1CC2CC(F)C(C1)N2C)C3 (racemic) [Example 38, (3-chloro-2,4-dimethyl-7H-pyrrolo[3′,4′:3,4]pyrazolo[1,5-a]pyrimidin-8(9H)-yl)(4-fluoro-2-(((3-endo)-(6-endo)-6-fluoro-8-methyl-8-azabicyclo[3.2.1]octan-3-yl)oxy)phenyl)methanone] | < 200
N#CCN1[C@@H]2CC[C@H]1C[C@@H](Oc1cc(F)ccc1C(=O)N1Cc3nn4cc(Cl)cnc4c3C1)C2 [Example 66, [(3endo)-3-{2[(3-chloro-7H-pyrrolo[3′,4′:3,4]pyrazolo[1,5-a]pyrimidin-8(9H)-yl)carbonyl]-5-fluorophenoxy}-8-azabicyclo[3.2.1]oct-8-yl]acetonitrile] | 200 to 1000
CCCN1[C@@H]2CC[C@H]1C[C@@H](Oc1cc(F)ccc1C(=O)N1Cc3nn4cc(Cl)cnc4c3C1)C2 [Example 64, (3-chloro-7H-pyrrolo[3′,4′:3,4]pyrazolo[1,5-a]pyrimidin-8(9H)-yl)(4-fluoro-2-{[(3-endo)-8-propyl-8-azabicyclo[3.2.1]oct-3-yl]oxy}phenyl)methanone] | < 200
Cc1nc2c3c(nn2c(C)c1Cl)CN(C(=O)c1ccc(F)cc1O[C@H]1C[C@H]2CC[C@@H](C1)N2CCO)C3 [Example 37, (3-chloro-2,4-dimethyl-7H-pyrrolo[3′,4′:3,4]pyrazolo[1,5-a]pyrimidin-8(9H)-yl)(4-fluoro-2-{[(3-endo)-8-(2-hydroxyethyl)-8-azabicyclo[3.2.1]oct-3-yl]oxy}phenyl)methanone] | < 200
O=C(c1ccc(F)cc1O[C@H]1C[C@H]2CC[C@@H](C1)N2CCF)N1Cc2nn3cc(Cl)cnc3c2C1 (single isomer, unassigned) [Example 51, (3-chloro-7H-pyrrolo[3′,4′:3,4]pyrazolo[1,5-a]pyrimidin-8(9H)-yl)(4-fluoro-2-{[(3-endo)-8-(2-fluoroethyl)-8-azabicyclo[3.2.1]oct-3-yl]oxy}phenyl)methanone] | < 200
CC(O)CN1[C@@H]2CC[C@H]1C[C@@H](Oc1cc(F)ccc1C(=O)N1Cc3nn4cc(Cl)cnc4c3C1)C2 (stereo partly drawn) [Example 73, (3-chloro-7H-pyrrolo[3′,4′:3,4]pyrazolo[1,5-a]pyrimidin-8(9H)-yl)(4-fluoro-2-{[(3-endo)-8-(2-hydroxypropyl)-8-azabicyclo[3.2.1]oct-3-yl]oxy}phenyl)methanone] | 200 to 1000

Same assay, conditions: CHO-K1 cells stably transfected with human M1 receptor; compounds added with EC20 of acetylcholine (25 nM), 30 min; intracellular IP1 by IP-One HTRF; read-out: M1 PAM EC50

EC50 [nM] | Structure (SMILES)
200 to 1000 | Cc1nc2c3c(nn2c(C)c1Cl)CN(C(=O)c1ccc(F)cc1O[C@@H]1CCNC1=O)C3 [Example 11, (R)-3-(2-(3-chloro-2,4-dimethyl-8,9-dihydro-7H-pyrrolo[3′,4′:3,4]pyrazolo[1,5-a]pyrimidine-8-carbonyl)-5-fluorophenoxy)pyrrolidin-2-one]
1000 to 3000 | Cc1nc2c3c(nn2c(C)c1Cl)CN(C(=O)c1ccc(F)cc1OCCN1CCC[C@H]1C)C3 (single isomer, unassigned) [Example 44]
200 to 1000 | Cc1nc2c3c(nn2c(C)c1Cl)CN(C(=O)c1ccc(F)cc1OCCn1cncn1)C3 [Example 20]
1000 to 3000 | Cc1nc2c3c(nn2c(C)c1Cl)CN(C(=O)c1ccc(F)cc1OC1CCC(F)(F)CC1)C3 [Example 47, (3-chloro-2,4-dimethyl-7H-pyrrolo[3′,4′:3,4]pyrazolo[1,5-a]pyrimidin-8(9H)-yl)(2-((4,4-difluorocyclohexyl)oxy)-4-fluorophenyl)methanone]
1000 to 3000 | Cc1nc2c3c(nn2c(C)c1Cl)CN(C(=O)c1ccccc1O[C@H]1CN(C)C[C@@H]1O)C3 (racemic) [Example 13, (anti)-(6-Chloro-5,7-dimethyl-1H,3H-2,4,7a,8-tetraaza-cyclopenta[a]inden-2-yl)-[2-(4-hydroxy-1-methyl-pyrrolidin-3-yloxy)-phenyl]-methanone]
200 to 1000 | Cc1cncc(CCOc2cc(F)ccc2C(=O)N2Cc3nn4c(C)c(Cl)c(C)nc4c3C2)c1 [Example 67, (3-chloro-2,4-dimethyl-7H-pyrrolo[3′,4′:3,4]pyrazolo[1,5-a]pyrimidin-8(9H)-yl)(4-fluoro-2-(2-(5-methylpyridin-3-yl)ethoxy)phenyl)methanone]
200 to 1000 | Cc1nc2c3c(nn2c(C)c1Cl)CN(C(=O)c1ccccc1O[C@H]1CCNC[C@@H]1O)C3 (single isomer, unassigned) [Example 5]
1000 to 3000 | Cc1nc2c3c(nn2c(C)c1Cl)CN(C(=O)c1ccncc1OC1CCN(C)CC1)C3 [Example 3, (3-chloro-2,4-dimethyl-7H-pyrrolo[3′,4′:3,4]pyrazolo[1,5-a]pyrimidin-8(9H)-yl)(3-((1-methylpiperidin-4-yl)oxy)pyridin-4-yl)methanone]
< 200 | CCN1CCC(Oc2cc(F)ccc2C(=O)N2Cc3nn4c(C)c(Cl)c(C)nc4c3C2)CC1 [Example 76, (6-Chloro-5,7-dimethyl-1H,3H-2,4,7a,8-tetraaza-cyclopenta[a]inden-2-yl)-[2-(1-ethyl-piperidin-4-yloxy)-4-fluoro-phenyl]-methanone]
1000 to 3000 | Cc1nc2c3c(nn2c(C)c1Cl)CN(C(=O)c1ccc(F)cc1O[C@H]1COC[C@@H]1O)C3 (racemic) [Example 26, (anti)-(3-chloro-2,4-dimethyl-7H-pyrrolo[3′,4′:3,4]pyrazolo[1,5-a]pyrimidin-8(9H)-yl)(4-fluoro-2-((4-hydroxytetrahydrofuran-3-yl)oxy)phenyl)methanone]
1000 to 3000 | Cc1nc2c3c(nn2c(C)c1Cl)CN(C(=O)c1ccc(F)cc1OCCn1ccnc1C)C3 [Example 40, (3-chloro-2,4-dimethyl-7H-pyrrolo[3′,4′:3,4]pyrazolo[1,5-a]pyrimidin-8(9H)-yl)(4-fluoro-2-(2-(2-methyl-1H-imidazol-1-yl)ethoxy)phenyl)methanone]
200 to 1000 | Cc1nc2c3c(nn2c(C)c1Cl)CN(C(=O)c1ccc(F)cc1O[C@H]1CCN(C)C[C@@H]1F)C3 (racemic) [Example 2, (anti)-(3-chloro-2,4-dimethyl-7H-pyrrolo[3′,4′:3,4]pyrazolo[1,5-a]pyrimidin-8(9H)-yl)(4-fluoro-2-((-3-fluoro-1-methylpiperidin-4-yl)oxy)phenyl)methanone]
1000 to 3000 | Cc1nc2c3c(nn2c(C)c1Cl)CN(C(=O)c1ccc(F)cc1OCCN1CCOCC1)C3 [Example 15, (3-Chloro-2,4-dimethyl-7H-pyrrolo[3′,4′:3,4]pyrazolo[1,5-a]pyrimidin-8(9H)-yl)(4-fluoro-2-(2-morpholinoethoxy)phenyl)methanone]
200 to 1000 | Cc1nc2c3c(nn2c(C)c1Cl)CN(C(=O)c1ccc(F)cc1O[C@H]1CCN[C@@H](C)C1)C3 (stereo in doubt) [Example 48, (3-chloro-2,4-dimethyl-7H-pyrrolo[3′,4′:3,4]pyrazolo[1,5-a]pyrimidin-8(9H)-yl)(4-fluoro-2-((2-methylpiperidin-4-yl)oxy)phenyl)methanone hydrochloride]
200 to 1000 | O=C(c1ccc(F)cc1O[C@H]1C[C@H]2CC[C@@H](C1)N2CC(F)F)N1Cc2nn3cc(Cl)cnc3c2C1 [Example 65, (3-chloro-7H-pyrrolo[3′,4′:3,4]pyrazolo[1,5-a]pyrimidin-8(9H)-yl)(2-{[(3-endo)-8-(2,2-difluoroethyl)-8-azabicyclo[3.2.1]oct-3-yl]oxy}-4-fluorophenyl)methanone]
< 200 | CCCN1CCC(Oc2cc(F)ccc2C(=O)N2Cc3nn4c(C)c(Cl)c(C)nc4c3C2)CC1 [Example 77, (6-Chloro-5,7-dimethyl-1H,3H-2,4,7a,8-tetraaza-cyclopenta[a]inden-2-yl)-[4-fluoro-2-(1-propyl-piperidin-4-yloxy)-phenyl]-methanone]
200 to 1000 | Cc1nc2c3c(nn2c(C)c1Cl)CN(C(=O)c1ccc(F)cc1OC1CN(CCO)C1)C3 [Example 30, (3-chloro-2,4-dimethyl-7H-pyrrolo[3′,4′:3,4]pyrazolo[1,5-a]pyrimidin-8(9H)-yl)(4-fluoro-2-((1-(2-hydroxyethyl)azetidin-3-yl)oxy)phenyl)methanone]

Structure (SMILES) | EC50 [nM]
Cc1nc2c3c(nn2c(C)c1Cl)CN(C(=O)c1ccc(F)cc1O[C@H]1CCNC[C@@H]1O)C3 (single isomer, unassigned) [Example 70, (3-chloro-2,4-dimethyl-7H-pyrrolo[3′,4′:3,4]pyrazolo[1,5-a]pyrimidin-8(9H)-yl)(4-fluoro-2-(((3S,4S)-3-hydroxypiperidin-4-yl)oxy)phenyl)methanone hydrochloride or (3-chloro-2,4-dimethyl-7H-pyrrolo[3′,4′:3,4]pyrazolo[1,5-a]pyrimidin-8(9H)-yl)(4-fluoro-2-(((3R,4R)-3-hydroxypiperidin-4-yl)oxy)phenyl)methanone hydrochloride] | 200 to 1000
